Where a name gives a salt, the structure may show the parent alone.
Legend:
[1] = molecular target: catalytic domain (JH1, amino acids 826-1132) of human JAK2 (Homo sapiens (Human), UniProt O60674); test: JAK2 LanthaScreen JH1 Binding Assay; details: JAK2 JH1 1.5 nM, 50 nM tracer, 2 hours at 25° C.; read-out: JH1BIND IC50
Description: Example A. JAK2 LanthaScreen JH1 Binding Assay
(§1) JAK2 JH1 binding assay utilizes catalytic domain (JH1, amino acids 826-1132) of human JAK2 expressed as N-terminal FLAG-tagged, biotinylated protein in a baculovirus expression system (Carna Biosciences, Product #08-445-20N). The assay was conducted in black 384-well polystyrene plates in a final reaction volume of 20 μL. JAK2 JH1 (1.5 nM) was incubated with compounds (100 nL serially diluted in DMSO) in the presence of 50 nM fluorescent JAK2-JH1 tracer and 0.5 nM Streptavidin-Tb cryptate (Cisbio Part #610SATLB) in assay buffer (50 mM Tris, pH=7.5, 10 mM MgCl2, 0.01% Brij-35, 0.1% BSA, 1 mM EGTA, 5% Glycerol and 5 mM DTT). Non-specific binding was accessed in the presence of 2 mM ATP. After incubation for 2 hours at 25° C., LanthaScreen signals were read on a PHERAstar FS plate reader (BMG LABTECH). Data was analyzed with IDBS XLfit and GraphPad Prism 5.0 software using a four parameter dose response curve to determine IC50 for each compound.

[2] = molecular target: pseudo-kinase domain (JH2) of human Wild Type JAK2 (Homo sapiens (Human), UniProt O60674, F794H/W659A/W777A); test: JAK2 LanthaScreen JH2-WT Binding Assay; details: JAK2 JH2-WT 0.145 nM, 50 nM tracer, 1 hour at 25° C.; read-out: JH2BIND_WT IC50
pseudo-kinase domain (JH2) of human Wild Type JAK2, sequence (O60674 536-812 W659A/W777A/F794H): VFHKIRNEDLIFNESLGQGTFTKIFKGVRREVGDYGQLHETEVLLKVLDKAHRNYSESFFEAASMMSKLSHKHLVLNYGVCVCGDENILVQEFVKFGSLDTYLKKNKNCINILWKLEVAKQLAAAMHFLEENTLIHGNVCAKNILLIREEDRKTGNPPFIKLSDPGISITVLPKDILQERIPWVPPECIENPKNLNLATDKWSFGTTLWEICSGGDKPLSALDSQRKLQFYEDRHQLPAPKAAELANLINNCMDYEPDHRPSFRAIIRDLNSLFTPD
Description: Example B. JAK2 LanthaScreen JH2-WT Binding Assay
as §1, with “The” for “JAK2 JH1 binding assay utilizes catalytic domain (JH1, amino acids 826-1132) of human JAK2 expressed as N-terminal FLAG-tagged, biotinylated protein in a baculovirus expression system (Carna Biosciences, Product #08-445-20N). The”, “JH2-WT (0.145” for “JH1 (1.5”, “Fluorescent JAK2-JH2 Tracer (MedChem Express Catalog #HY-102055)” for “fluorescent JAK2-JH1 tracer”, “0.25” for “0.5”, “1 hour” for “2 hours”

[3] = molecular target: pseudo-kinase domain (JH2) of human V617F mutant JAK2 (Homo sapiens (Human), UniProt O60674, F794H/V617F/W659A/W777A); test: JAK2 LanthaScreen JH2-V617F Binding Assay; details: JAK2 JH2-V617F 0.26 nM, 50 nM tracer, 1 hour at 25° C.; read-out: JH2BINDING_V617F IC50
pseudo-kinase domain (JH2) of human V617F mutant JAK2, sequence (O60674 536-812 V617F/W659A/W777A/F794H): as the sequence (O60674 536-812 W659A/W777A/F794H) above, with V82F counted along it
Description: The assay was conducted in black 384-well polystyrene plates in a final reaction volume of 20 μL. […] Non-specific binding was accessed in the presence of 2 mM ATP. After incubation for 1 hour at 25° C., LanthaScreen signals were read on a PHERAstar FS plate reader (BMG LABTECH). Data was analyzed with IDBS XLfit and GraphPad Prism 5.0 software using a four parameter dose response curve to determine IC50 for each compound.

[4] = molecular target: catalytic domain (JH1, amino acids 808-1132) of human JAK2 (Homo sapiens (Human), UniProt O60674); test: JAK2 HTRF Enzyme Activity Assay; format: biochemical; details: ATP 30 μM, 60 minutes at 25° C.; read-out: ENZ 30UMATP IC50
catalytic domain (JH1, amino acids 808-1132) of human JAK2, sequence (O60674 808-1132): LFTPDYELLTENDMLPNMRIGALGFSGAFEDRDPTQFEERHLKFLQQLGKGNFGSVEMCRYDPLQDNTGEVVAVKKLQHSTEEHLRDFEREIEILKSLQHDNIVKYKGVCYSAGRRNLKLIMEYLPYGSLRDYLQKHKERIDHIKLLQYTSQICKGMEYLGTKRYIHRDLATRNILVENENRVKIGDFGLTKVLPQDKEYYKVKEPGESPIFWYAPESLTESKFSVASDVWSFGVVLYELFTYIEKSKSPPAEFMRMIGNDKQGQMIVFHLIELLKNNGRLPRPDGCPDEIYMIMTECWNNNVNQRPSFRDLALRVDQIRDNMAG
Description: Example D. JAK2 HTRF Enzyme Activity Assay
JAK2 enzyme activity assays utilize catalytic domain (JH1, amino acids 808-1132) of human JAK2 expressed as N-terminal His-tagged protein in a baculovirus expression system (BPS Bioscience, Catalog #40450). The assays was conducted in black 384-well polystyrene plates in a final reaction volume of 20 μL. JAK2 (0.015 nM) was incubated with compounds (100 nL serially diluted in DMSO) in the presence of ATP (30 μM or 1 mM) and 500 nM Biotin-labeled […] (SEQ ID NO.: 1) peptide (BioSource International, custom synthesis) in assay buffer (50 mM Tris, pH=7.5, 10 mM MgCl2, 0.01% Brij-35, 0.1% BSA, 1 mM EGTA, 5% Glycerol and 5 mM DTT) for 60 minutes at 25° C. The reactions were stopped by the addition of 10 μL of detection buffer (50 mM Tris, pH 7.8, 0.5 mg/mL BSA, 150 mM NaCl), supplemented with EDTA, LANCE Eu-W1024 anti-phosphotyrosine (PY20), (PerkinElmer, Catalog #AD0067) and Streptavidin SureLight APC (PerkinElmer Catalog #CR130-100), for a final concentration of 15 mM, 1.5 nM and 75 nM, respectively. HTRF signals were read after 30 minutes incubation at room temperature on a PHERAstar FS plate reader (BMG LABTECH). Data was analyzed with IDBS XLfit and GraphPad Prism 5.0 software using a four parameter dose response curve to determine IC50 for each compound.

catalytic domain (JH1, amino acids 826-1132) of human JAK2, sequence (O60674 826-1132): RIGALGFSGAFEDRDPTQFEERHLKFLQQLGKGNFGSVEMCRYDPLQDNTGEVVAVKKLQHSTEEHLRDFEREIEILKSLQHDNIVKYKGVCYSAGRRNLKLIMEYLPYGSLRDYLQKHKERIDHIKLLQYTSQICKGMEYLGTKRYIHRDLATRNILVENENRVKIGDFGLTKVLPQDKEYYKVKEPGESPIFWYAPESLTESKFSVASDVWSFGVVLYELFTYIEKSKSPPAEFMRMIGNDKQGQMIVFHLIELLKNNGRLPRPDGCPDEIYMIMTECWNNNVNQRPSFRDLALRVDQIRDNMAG

SMILES	IC50 [1] [µM]	IC50 [2] [µM]	IC50 [3] [µM]	IC50 [4] [µM]
O=C(Nc1cc(Nc2ccccc2CO)c2c(=O)[nH]ccc2n1)C1CC1 [Example 23, N-(4-((2-(Hydroxymethyl)phenyl)amino)-5-oxo-5,6-dihydro-1,6-naphthyridin-2-yl)cyclopropanecarboxamide Trifluoroacetic Acid Salt]	1 to 10	1 to 10	> 10	1 to 10
O=C(Nc1cc(Nc2cccc(Cl)c2-c2cn[nH]c2)c2c(=O)[nH]ccc2n1)C1CC1 [Example 16, N-(4-((3-Chloro-2-(1H-pyrazol-4-yl)phenyl)amino)-5-oxo-5,6-dihydro-1,6-naphthyridin-2-yl)cyclopropanecarboxamide Trifluoroacetic Acid Salt]	1 to 10	0.5 to 1	0.5 to 1	1 to 10
CNc1ccccc1Nc1cc(NC(=O)C2CC2)nc2cc[nH]c(=O)c12 [Example 22, N-(4-((2-(Methylamino)phenyl)amino)-5-oxo-5,6-dihydro-1,6-naphthyridin-2-yl)cyclopropanecarboxamide Trifluoroacetic Acid Salt]	> 10	> 10	> 10	> 10
COc1c(Nc2cc(NC(=O)C3CC3)nc3cc[nH]c(=O)c23)cccc1-c1cnc(C2CCOCC2)s1 [Example 2, N-(4-((2-Methoxy-3-(2-(tetrahydro-2H-pyran-4-yl)thiazol-5-yl)phenyl)amino)-5-oxo-5,6-dihydro-1,6-naphthyridin-2-yl)cyclopropanecarboxamide Trifluoroacetic Acid Salt]	> 10	≤ 0.1	≤ 0.1	> 10
CSc1c(Nc2cc(NC(=O)C3CC3)nc3cc[nH]c(=O)c23)cccc1-c1cnn(C2CCOCC2)c1 [Example 12, N-(4-((2-(Methylthio)-3-(1-(tetrahydro-2H-pyran-4-yl)-1H-pyrazol-4-yl)phenyl)amino)-5-oxo-5,6-dihydro-1,6-naphthyridin-2-yl)cyclopropanecarboxamide Trifluoroacetic Acid Salt]	> 10	0.5 to 1	0.5 to 1	> 10
COc1c(Nc2cc(NC(=O)C3CC3)nc3cc[nH]c(=O)c23)cccc1-c1cn[nH]c1 [Example 1, N-(4-((2-Methoxy-3-(1H-pyrazol-4-yl)phenyl)amino)-5-oxo-5,6-dihydro-1,6-naphthyridin-2-yl)cyclopropanecarboxamide]	1 to 10	≤ 0.1	0.1 to 0.5	1 to 10
CS(=O)(=O)c1c(Nc2cc(NC(=O)C3CC3)nc3cc[nH]c(=O)c23)cccc1-c1cnn(C2CCOCC2)c1 [Example 13, N-(4-((2-(Methylsulfonyl)-3-(1-(tetrahydro-2H-pyran-4-yl)-1H-pyrazol-4-yl)phenyl)amino)-5-oxo-5,6-dihydro-1,6-naphthyridin-2-yl)cyclopropanecarboxamide Trifluoroacetic Acid Salt]	> 10	1 to 10	1 to 10	> 10
Cc1[nH]ncc1-c1c(Nc2cc(NC(=O)C3CC3)nc3cc[nH]c(=O)c23)cccc1C(F)(F)F [Example 19, N-(4-((2-(5-Methyl-1H-pyrazol-4-yl)-3-(trifluoromethyl)phenyl)amino)-5-oxo-5,6-dihydro-1,6-naphthyridin-2-yl)cyclopropanecarboxamide Trifluoroacetic Acid Salt]	> 10	1 to 10	1 to 10	> 10

Reference: patent publication US11691971B2, “Naphthyridinone compounds as JAK2 V617F inhibitors” (Incyte Corporation, priority 2020, dated 2023)
